What was measured:
Test in all cases: relative viability (nuclei count vs DMSO), 5 days (fraction); higher = more cells survive
[1] = compound: CC(C)C[C@H](NC(=O)[C@H](CCc1ccccc1)NC(=O)CN1CCOCC1)C(=O)N[C@@H](Cc1ccccc1)C(=O)N[C@@H](CC(C)C)C(=O)[C@@]1(C)CO1 [Carfilzomib]
Procedure, shortened: (§1)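 In 1536-well plates, lung cancer cell lines rested overnight at 37 °C before five library-drug doses (not always all listed), √10 apart, were pinned onto vehicle-anchored plates. Nuclei were counted with MetaXpress from 4× Hoechst images taken after 5 days without medium change. Viability compares treated-well with vehicle-well nuclei as a median over plates, and plates needed control CV below 25% plus at least one doubling to pass.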

[2] = compound: C[C@@H](Oc1cc(-c2cnn(C3CCNCC3)c2)cnc1N)c1c(Cl)ccc(F)c1Cl [Crizotinib]
Procedure, shortened: as §1

[3] = compound: O=C(c1cc(Cc2n[nH]c(=O)c3ccccc23)ccc1F)N1CCN(C(=O)C2CC2)CC1 [Olaparib]
Procedure, shortened: as §1

| Cell Line | relative viability ([1]; 0.001 µM) | relative viability ([1]; 0.003162 µM) | relative viability ([1]; 0.01 µM) | relative viability ([1]; 0.03162 µM) | relative viability ([1]; 0.1 µM) | relative viability ([2]; 0.01 µM) | relative viability ([2]; 0.03162 µM) | relative viability ([2]; 0.1 µM) | relative viability ([2]; 0.3162 µM) | relative viability ([2]; 1 µM) | relative viability ([2]; 1 µM, anchor plate) | relative viability ([3]; 0.08 µM) | relative viability ([3]; 0.253 µM) | relative viability ([3]; 2.53 µM) | relative viability ([3]; 8 µM) | relative viability ([3]; 8 µM, anchor plate) |
| --- | --- | --- | --- | --- | --- | --- | --- | --- | --- | --- | --- | --- | --- | --- | --- | --- |
| 201T | 0.957 | 1.01 | 1.01 | 1.04 | 0.849 | 0.95 | 1 | 0.95 | 1.03 | 1 | 1.01 | 1.01 | 0.888 | 0.922 | 1.01 | 0.835 |
| A549 | 0.967 | 1.03 | 0.954 | 0.525 | 0.043 | 0.963 | 1.03 | 0.948 | 1.04 | 0.987 | 0.755 | 1.13 | 0.875 | 0.898 | 0.681 | 0.361 |
| A-427 | 0.936 | 1.15 | 0.957 | 0.479 | 0.134 | 0.965 | 1.03 | 1.03 | – | 1.01 | 0.906 | 1.09 | 0.945 | 0.884 | 0.782 | 0.713 |
| ABC-1 | 0.92 | 0.75 | 0.39 | 0.221 | 0.291 | 0.845 | 0.885 | 0.995 | 0.878 | 0.982 | 1.18 | 1.15 | 0.882 | 0.863 | 0.932 | 0.847 |
| BEN | 0.902 | 1.09 | 0.944 | 0.843 | 0.433 | 0.867 | 0.974 | 0.886 | 0.807 | 1.02 | 0.86 | 0.948 | 0.775 | 1.01 | 1.03 | 1.06 |
| CAL-12T | 0.933 | 1.19 | 1.1 | 0.736 | 0.138 | 0.917 | 0.973 | 0.974 | 0.837 | 0.981 | 0.683 | 1.21 | 0.966 | 0.976 | 0.888 | 0.706 |
| COR-L23 | 1.06 | 1.13 | 0.846 | 0.0978 | 0.0691 | 1.01 | 1.04 | 0.963 | 0.978 | 0.885 | 0.623 | 1.04 | 1.04 | 0.908 | 0.579 | 0.353 |
| COR-L 105 | 1.06 | 0.931 | 0.962 | 0.318 | 0.26 | 0.844 | 0.938 | 0.901 | 0.847 | 0.932 | 0.826 | 0.896 | 0.87 | 0.763 | 0.785 | 0.697 |
| Calu-6 | 0.992 | 1.09 | 0.92 | 0.306 | 0.11 | 0.986 | 1.03 | – | 0.957 | 1.01 | 0.768 | 1.13 | 0.936 | 0.937 | 0.789 | 0.584 |
| ChaGo-K-1 | 0.884 | 1.05 | 1.01 | 0.864 | 0.304 | 0.977 | – | 0.953 | 0.769 | 0.976 | 1.11 | 1.05 | 0.925 | 0.906 | 0.788 | 0.422 |
| EBC-1 | 1.01 | 1.09 | 0.642 | 0.11 | 0.103 | 0.965 | 1.05 | 0.976 | 0.17 | 0.199 | 0.192 | 1.2 | 0.883 | 0.98 | 0.752 | 0.703 |
| EKVX | 0.913 | 1 | 1.17 | 0.76 | 0.369 | 0.969 | 0.941 | 0.933 | 0.847 | 0.982 | 0.967 | 1.03 | 0.885 | 0.969 | 1.03 | 0.884 |
| EMC-BAC-2 | 0.957 | 1.18 | 1.04 | 0.972 | 0.432 | 1.08 | 0.96 | 0.98 | – | 0.923 | 0.767 | 1.1 | 0.91 | 1.05 | 0.849 | 0.477 |
| EPLC-272H | 0.845 | 1.22 | 0.834 | 0.242 | 0.0648 | 0.883 | 0.932 | 0.937 | 0.778 | 0.955 | 0.912 | 1.17 | 0.889 | 0.968 | 0.878 | 0.832 |
| H3255 | 0.973 | 1.09 | 1.11 | 0.718 | 0.373 | 0.963 | 0.993 | 0.991 | 0.911 | 1.03 | 0.934 | 1.01 | 0.869 | 1.05 | 0.924 | 0.579 |
| HARA | 0.996 | 1.09 | 1.2 | 0.427 | 0.126 | 0.796 | – | 1.03 | 0.779 | 1.02 | 1.04 | 1.14 | 0.852 | 0.804 | 0.811 | 0.788 |
| HCC-15 | 0.954 | 1.07 | 1.07 | 0.709 | 0.177 | 0.917 | 1.04 | 1.01 | – | 0.974 | 0.813 | 1.09 | 0.904 | 0.999 | 0.878 | 0.731 |
| HCC-44 | 0.988 | 0.996 | 1.05 | 0.819 | 0.317 | 0.967 | 0.974 | 1.06 | 0.879 | 0.944 | 0.785 | 1.04 | 0.949 | 1.02 | 1.08 | 0.963 |
| HCC-78 | 0.839 | 1.09 | 1.07 | 0.662 | 0.267 | 0.916 | 0.993 | 1.01 | 0.476 | 0.778 | 0.348 | 1.1 | 0.836 | 0.953 | 0.861 | 0.831 |
| HCC-366 | 0.992 | 1.02 | 1.01 | 1.05 | 0.0704 | 0.952 | 1.01 | – | – | 1.07 | 0.466 | 1.05 | 0.988 | 0.943 | 0.862 | 0.352 |
| HCC-827 | 1.05 | 1.05 | 1.09 | 0.97 | 0.647 | 0.985 | 1.03 | 1.03 | 0.901 | 1.03 | – | 0.999 | 0.989 | 0.962 | 0.966 | 0.61 |
| HOP-62 | 1.04 | 1.09 | 0.92 | 0.251 | 0.106 | 0.96 | 1.01 | 1.03 | 0.874 | 1.04 | 1 | 1.08 | 0.984 | 0.997 | 0.722 | 0.384 |
